# Measured values reported in PubChem BioAssay (NCI).
#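 All cell lines were grown in 96-well plates and treated with compound for 48 hours. GI50 = concentration required for 50% inhibition of growth. TGI: concentration producing complete growth inhibition.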
# What was measured:
# Experiment in all cases: NCI-60 cell line screen, 48 h
# UACC-62 melanoma = tested on: UACC-62 melanoma
# NCI-H23 lung = tested on: NCI-H23 lung
# OVCAR-3 ovarian = tested on: OVCAR-3 ovarian
# HCC-2998 colon = tested on: HCC-2998 colon
# OVCAR-4 ovarian = tested on: OVCAR-4 ovarian
# MDA-MB-231 breast = tested on: MDA-MB-231 breast
# HS 578T breast = tested on: HS 578T breast
# MOLT-4 leukemia = tested on: MOLT-4 leukemia
# OVCAR-5 ovarian = tested on: OVCAR-5 ovarian
# HCT-15 colon = tested on: HCT-15 colon
# CAKI-1 renal = tested on: CAKI-1 renal
# SW-620 colon = tested on: SW-620 colon
# HCT-116 colon = tested on: HCT-116 colon
# U251 CNS = tested on: U251 CNS
# NCI-H460 lung = tested on: NCI-H460 lung
# SNB-19 CNS = tested on: SNB-19 CNS
# SF-539 CNS = tested on: SF-539 CNS
# K-562 leukemia = tested on: K-562 leukemia
# DU-145 prostate = tested on: DU-145 prostate
# NCI-H226 lung = tested on: NCI-H226 lung
# M14 melanoma = tested on: M14 melanoma
# SNB-75 CNS = tested on: SNB-75 CNS
# SK-OV-3 ovarian = tested on: SK-OV-3 ovarian
# HT29 colon = tested on: HT29 colon
# A549 NSCLC = tested on: A549 NSCLC
# SR leukemia = tested on: SR leukemia
# NCI-H522 lung = tested on: NCI-H522 lung
# IGROV1 ovarian = tested on: IGROV1 ovarian
# HOP-62 NSCLC = tested on: HOP-62 NSCLC
# SN12C renal = tested on: SN12C renal
# UO-31 renal = tested on: UO-31 renal
# PC-3 prostate = tested on: PC-3 prostate
# T-47D breast = tested on: T-47D breast
# OVCAR-8 ovarian = tested on: OVCAR-8 ovarian
# COLO 205 colon = tested on: COLO 205 colon
# HL-60(TB) leukemia = tested on: HL-60(TB) leukemia
# SF-295 CNS = tested on: SF-295 CNS
# BT-549 breast = tested on: BT-549 breast
# LOX IMVI melanoma = tested on: LOX IMVI melanoma
# HOP-92 NSCLC = tested on: HOP-92 NSCLC
# MALME-3M melanoma = tested on: MALME-3M melanoma
# RPMI-8226 leukemia = tested on: RPMI-8226 leukemia
# ACHN renal = tested on: ACHN renal
# SK-MEL-5 melanoma = tested on: SK-MEL-5 melanoma
# KM12 colon = tested on: KM12 colon
# SF-268 CNS = tested on: SF-268 CNS
# 786-0 renal = tested on: 786-0 renal
# CCRF-CEM leukemia = tested on: CCRF-CEM leukemia
# SK-MEL-28 melanoma = tested on: SK-MEL-28 melanoma
# MCF7 breast = tested on: MCF7 breast
# MDA-MB-435 = tested on: MDA-MB-435
# TK-10 renal = tested on: TK-10 renal
# A498 renal = tested on: A498 renal
# RXF 393 renal = tested on: RXF 393 renal
# NCI/ADR-RES ovarian = tested on: NCI/ADR-RES ovarian
# EKVX NSCLC = tested on: EKVX NSCLC
# SK-MEL-2 melanoma = tested on: SK-MEL-2 melanoma
# UACC-257 melanoma = tested on: UACC-257 melanoma
compound,measurement,setting,value
CCN(CC)c1ccc(/C=N/NC(=O)c2ccc(NS(C)(=O)=O)cc2)c(O)c1,GI50,UACC-62 melanoma,381 nM
same,TGI,UACC-62 melanoma,7.1 µM
same,GI50,NCI-H23 lung,1160 nM
same,TGI,NCI-H23 lung,30.6 µM
same,GI50,OVCAR-3 ovarian,185 nM
same,TGI,OVCAR-3 ovarian,26.3 µM
same,GI50,HCC-2998 colon,572 nM
same,TGI,HCC-2998 colon,19.2 µM
same,GI50,OVCAR-4 ovarian,355 nM
same,TGI,OVCAR-4 ovarian,42.4 µM
same,GI50,MDA-MB-231 breast,432 nM
same,TGI,MDA-MB-231 breast,34.9 µM
same,GI50,HS 578T breast,1950 nM
same,TGI,HS 578T breast,18.3 µM
same,GI50,MOLT-4 leukemia,331 nM
same,TGI,MOLT-4 leukemia,25.6 µM
same,GI50,OVCAR-5 ovarian,2470 nM
same,TGI,OVCAR-5 ovarian,> 100 µM
same,GI50,HCT-15 colon,386 nM
same,TGI,HCT-15 colon,> 68.8 µM
same,GI50,CAKI-1 renal,434 nM
same,TGI,CAKI-1 renal,17.7 µM
same,GI50,SW-620 colon,468 nM
same,TGI,SW-620 colon,> 100 µM
same,GI50,HCT-116 colon,330 nM
same,TGI,HCT-116 colon,19.5 µM
same,GI50,U251 CNS,239 nM
same,TGI,U251 CNS,> 37.2 µM
same,GI50,NCI-H460 lung,455 nM
same,TGI,NCI-H460 lung,10.2 µM
same,GI50,SNB-19 CNS,830 nM
same,TGI,SNB-19 CNS,30.7 µM
same,GI50,SF-539 CNS,426 nM
same,TGI,SF-539 CNS,7.07 µM
same,GI50,K-562 leukemia,443 nM
same,TGI,K-562 leukemia,> 100 µM
same,GI50,DU-145 prostate,751 nM
same,TGI,DU-145 prostate,23.3 µM
same,GI50,NCI-H226 lung,1010 nM
same,TGI,NCI-H226 lung,31.8 µM
same,GI50,M14 melanoma,351 nM
same,TGI,M14 melanoma,3.63 µM
same,GI50,SNB-75 CNS,309 nM
same,TGI,SNB-75 CNS,5.65 µM
same,GI50,SK-OV-3 ovarian,508 nM
same,TGI,SK-OV-3 ovarian,20.1 µM
same,GI50,HT29 colon,475 nM
same,TGI,HT29 colon,16.7 µM
same,GI50,A549 NSCLC,1980 nM
same,TGI,A549 NSCLC,> 48.5 µM
same,GI50,SR leukemia,95.4 nM
same,GI50,NCI-H522 lung,334 nM
same,TGI,NCI-H522 lung,10.4 µM
same,GI50,IGROV1 ovarian,540 nM
same,TGI,IGROV1 ovarian,> 70.3 µM
same,GI50,HOP-62 NSCLC,267 nM
same,TGI,HOP-62 NSCLC,6.94 µM
same,GI50,SN12C renal,768 nM
same,TGI,SN12C renal,62.6 µM
same,GI50,UO-31 renal,397 nM
same,TGI,UO-31 renal,20.5 µM
same,GI50,PC-3 prostate,369 nM
same,TGI,PC-3 prostate,> 54 µM
same,GI50,T-47D breast,2050 nM
same,TGI,T-47D breast,> 55.3 µM
same,GI50,OVCAR-8 ovarian,355 nM
same,TGI,OVCAR-8 ovarian,> 34 µM
same,GI50,COLO 205 colon,356 nM
same,TGI,COLO 205 colon,13.5 µM
same,GI50,HL-60(TB) leukemia,242 nM
same,GI50,SF-295 CNS,551 nM
same,TGI,SF-295 CNS,14.8 µM
same,GI50,BT-549 breast,658 nM
same,TGI,BT-549 breast,8.61 µM
same,GI50,LOX IMVI melanoma,219 nM
same,TGI,LOX IMVI melanoma,5.3 µM
same,GI50,HOP-92 NSCLC,386 nM
same,TGI,HOP-92 NSCLC,20.5 µM
same,GI50,MALME-3M melanoma,788 nM
same,TGI,MALME-3M melanoma,11.7 µM
same,GI50,RPMI-8226 leukemia,2790 nM
same,TGI,RPMI-8226 leukemia,16.2 µM
same,GI50,ACHN renal,497 nM
same,TGI,ACHN renal,20.6 µM
same,GI50,SK-MEL-5 melanoma,853 nM
same,TGI,SK-MEL-5 melanoma,21.3 µM
same,GI50,KM12 colon,536 nM
same,TGI,KM12 colon,19.6 µM
same,GI50,SF-268 CNS,243 nM
same,TGI,SF-268 CNS,17.3 µM
same,GI50,786-0 renal,425 nM
same,TGI,786-0 renal,4.2 µM
same,GI50,CCRF-CEM leukemia,169 nM
same,TGI,CCRF-CEM leukemia,> 100 µM
same,GI50,SK-MEL-28 melanoma,444 nM
same,TGI,SK-MEL-28 melanoma,> 50.9 µM
same,GI50,MCF7 breast,409 nM
same,TGI,MCF7 breast,24.5 µM
same,GI50,MDA-MB-435,734 nM
same,TGI,MDA-MB-435,97.2 µM
same,GI50,TK-10 renal,833 nM
same,TGI,TK-10 renal,39.9 µM
same,GI50,A498 renal,2950 nM
same,TGI,A498 renal,25.1 µM
same,GI50,RXF 393 renal,788 nM
same,TGI,RXF 393 renal,3.23 µM
same,GI50,NCI/ADR-RES ovarian,3.18 µM
same,TGI,NCI/ADR-RES ovarian,98.3 µM
same,GI50,EKVX NSCLC,574 nM
same,TGI,EKVX NSCLC,> 63.1 µM
same,GI50,SK-MEL-2 melanoma,2010 nM
same,TGI,SK-MEL-2 melanoma,16.9 µM
same,GI50,UACC-257 melanoma,568 nM
same,TGI,UACC-257 melanoma,18.4 µM
